# Data taken from patent publication US12473250B2, “Molecular design of new antibiotics and antibiotic adjuvants against MCR strains” (priority 2019, dated 2025).
# Legend:
# [1] = tested on: ENT CLOACAE multi-drug resistant strains; assay: MIC against multi-drug resistant strains (Table 5); type: cell-based, E. cloacae; conditions: alone
# Method: MIC experiments of the antimicrobial agents were determined by a modified broth microdilution method in accordance with the Clinical and Laboratory Standards Institute (CLSI) guidelines using 96 well culture plates. In brief, serial dilutions of all plates were prepared at different concentrations (μg). The inoculum suspension was prepared by adding isolated colonies from a 18-20 hours on TSA plate into phosphate buffer (0.31 mM, pH 7.2) or in water for injection (BBraun) and adjusting the suspension to a turbidity equivalent to 0.5 McFarland Standard. Each well contained a final bacterial concentration of approximately 5×10^5 colony forming units (CFU)/mL. The plate was covered and incubated at 35° C. for 24 hours. […] For the microdilution plates, turbidity in wells can be measured at OD600 using TECAN infinite M200Pro. MIC was determined as […] concentration that gives a 99 percent inhibition.
# various pathogens = assay: organism not typed; type: cell-based
# Method: The MICs of the individual drugs and LC compound in combinations were determined using the broth microdilution technique as recommended by the CLSI whereby the two anti-microbial agents were added in an equal amount. (e.g.: 50 μL of Colistin: 50 μL of LC compounds). Diluted media containing compounds and antibiotics will be serially diluted 2-fold, and LC compounds and antibiotics alone or in combination will be assayed at fixed synergy concentration. In all cases, the lowest concentration at which no visible growth occurred was be recorded to be the MIC value of individual and combined antibacterial agents. The results were obtained after 24 hours of incubation.
# Using the combination of LC100 and colistin, the activity of a broad range of strains was further tested (Table 7).
# mcr-1 bacterial membrane = assay: Ethidium bromide (EtBr) fluorescence, membrane disruption; type: cell-based; conditions: mcr-1 bacteria; in words
# Method: However, EtBr is membrane impermeable, which means that it can only enter the bacterial cell and bind to DNA and emit fluorescence only when both the bacterial outer and inner membranes are perturbed. […] It is also possible that LC100 may have other targets. One possible target is the MCR-1 protein. To understand the interaction of LC100 and the MCR-1 protein, the fluorescence of MCR-1 protein in the presence of different concentration of LC100 was measured. MCR-1 protein contains several tryptophan residues, and autofluoresces at 323 nm.
# [2] = 6093560257 [MCR 1+, E. Coli, NDM-1]
# [3] = 7103531927 [MCR 1+, E. Coli, KPC+]
# [4] = 7113636863 [MCR 1+, E. Coli, NDM-1]
compound,measurement,setting,value
CCN(CC)CCCCOc1ccc(/C=C/C(=O)c2ccc(OCCCCN(CC)CC)c(CC=C(C)C)c2O)cc1 [LC100],MIC,[1]; strain ENT CLOACAE 6780,>50 µg/mL
same,MIC,[1]; strain ENT CLOACAE 21489,>50 µg/mL
same,MIC,[1]; strain ENT CLOACAE 30063,>50 µg/mL
same,MIC,[1]; strain ENT CLOACAE 44095,>50 µg/mL
same,"Pathogen sensitivity (✓/x), Colistin 0.5 μg+ LC100 1 μg","various pathogens; 6083655967 [MCR 1+, E. Coli]",✓
same,"Pathogen sensitivity (✓/x), Colistin 0.5 μg+ LC100 2 μg","various pathogens; 6083655967 [MCR 1+, E. Coli]",✓
same,"Pathogen sensitivity (✓/x), Colistin 1 μg+ LC100 1 μg","various pathogens; 6083655967 [MCR 1+, E. Coli]",✓
same,"Pathogen sensitivity (✓/x), Colistin 1 μg+ LC100 2 μg","various pathogens; 6083655967 [MCR 1+, E. Coli]",✓
same,"Pathogen sensitivity (✓/x), Colistin 0.5 μg+ LC100 1 μg",various pathogens; [2],✓
same,"Pathogen sensitivity (✓/x), Colistin 0.5 μg+ LC100 2 μg",various pathogens; [2],✓
same,"Pathogen sensitivity (✓/x), Colistin 1 μg+ LC100 1 μg",various pathogens; [2],✓
same,"Pathogen sensitivity (✓/x), Colistin 1 μg+ LC100 2 μg",various pathogens; [2],✓
same,"Pathogen sensitivity (✓/x), Colistin 0.5 μg+ LC100 1 μg","various pathogens; 6123520276 [MCR 1+, E. Coli]",✓
same,"Pathogen sensitivity (✓/x), Colistin 0.5 μg+ LC100 2 μg","various pathogens; 6123520276 [MCR 1+, E. Coli]",✓
same,"Pathogen sensitivity (✓/x), Colistin 1 μg+ LC100 1 μg","various pathogens; 6123520276 [MCR 1+, E. Coli]",✓
same,"Pathogen sensitivity (✓/x), Colistin 1 μg+ LC100 2 μg","various pathogens; 6123520276 [MCR 1+, E. Coli]",✓
same,"Pathogen sensitivity (✓/x), Colistin 0.5 μg+ LC100 1 μg","various pathogens; 7023436560 [MCR 1+, E. Coli]",✓
same,"Pathogen sensitivity (✓/x), Colistin 0.5 μg+ LC100 2 μg","various pathogens; 7023436560 [MCR 1+, E. Coli]",✓
same,"Pathogen sensitivity (✓/x), Colistin 1 μg+ LC100 1 μg","various pathogens; 7023436560 [MCR 1+, E. Coli]",✓
same,"Pathogen sensitivity (✓/x), Colistin 1 μg+ LC100 2 μg","various pathogens; 7023436560 [MCR 1+, E. Coli]",✓
same,"Pathogen sensitivity (✓/x), Colistin 0.5 μg+ LC100 1 μg","various pathogens; 7023444207 [MCR 1+, E. Coli]",✓
same,"Pathogen sensitivity (✓/x), Colistin 0.5 μg+ LC100 2 μg","various pathogens; 7023444207 [MCR 1+, E. Coli]",✓
same,"Pathogen sensitivity (✓/x), Colistin 1 μg+ LC100 1 μg","various pathogens; 7023444207 [MCR 1+, E. Coli]",✓
same,"Pathogen sensitivity (✓/x), Colistin 1 μg+ LC100 2 μg","various pathogens; 7023444207 [MCR 1+, E. Coli]",✓
same,"Pathogen sensitivity (✓/x), Colistin 0.5 μg+ LC100 1 μg","various pathogens; 7023446108 [MCR 1−, E. Coli]",✓
same,"Pathogen sensitivity (✓/x), Colistin 0.5 μg+ LC100 2 μg","various pathogens; 7023446108 [MCR 1−, E. Coli]",✓
same,"Pathogen sensitivity (✓/x), Colistin 1 μg+ LC100 1 μg","various pathogens; 7023446108 [MCR 1−, E. Coli]",✓
same,"Pathogen sensitivity (✓/x), Colistin 1 μg+ LC100 2 μg","various pathogens; 7023446108 [MCR 1−, E. Coli]",✓
same,"Pathogen sensitivity (✓/x), Colistin 0.5 μg+ LC100 1 μg","various pathogens; 7033607097 [MCR 1−, E. Coli]",✓
same,"Pathogen sensitivity (✓/x), Colistin 0.5 μg+ LC100 2 μg","various pathogens; 7033607097 [MCR 1−, E. Coli]",✓
same,"Pathogen sensitivity (✓/x), Colistin 1 μg+ LC100 1 μg","various pathogens; 7033607097 [MCR 1−, E. Coli]",✓
same,"Pathogen sensitivity (✓/x), Colistin 1 μg+ LC100 2 μg","various pathogens; 7033607097 [MCR 1−, E. Coli]",✓
same,"Pathogen sensitivity (✓/x), Colistin 0.5 μg+ LC100 1 μg",various pathogens; [3],✓
same,"Pathogen sensitivity (✓/x), Colistin 0.5 μg+ LC100 2 μg",various pathogens; [3],✓
same,"Pathogen sensitivity (✓/x), Colistin 1 μg+ LC100 1 μg",various pathogens; [3],✓
same,"Pathogen sensitivity (✓/x), Colistin 1 μg+ LC100 2 μg",various pathogens; [3],✓
same,"Pathogen sensitivity (✓/x), Colistin 0.5 μg+ LC100 1 μg",various pathogens; [4],✓
same,"Pathogen sensitivity (✓/x), Colistin 0.5 μg+ LC100 2 μg",various pathogens; [4],✓
same,"Pathogen sensitivity (✓/x), Colistin 1 μg+ LC100 1 μg",various pathogens; [4],✓
same,"Pathogen sensitivity (✓/x), Colistin 1 μg+ LC100 2 μg",various pathogens; [4],✓
same,"Pathogen sensitivity (✓/x), Colistin 0.5 μg+ LC100 1 μg",various pathogens; KLPN ATCC 10031,✓
same,"Pathogen sensitivity (✓/x), Colistin 0.5 μg+ LC100 1 μg",various pathogens; KLPN CRE 15588,✓
same,"Pathogen sensitivity (✓/x), Colistin 1 μg+ LC100 1 μg",various pathogens; KLPN CRE 15588,✓
same,"Pathogen sensitivity (✓/x), Colistin 0.5 μg+ LC100 1 μg",various pathogens; KLPN CRE 16260,✓
same,"Pathogen sensitivity (✓/x), Colistin 0.5 μg+ LC100 2 μg",various pathogens; KLPN CRE 16260,✓
same,"Pathogen sensitivity (✓/x), Colistin 0.5 μg+ LC100 5 μg",various pathogens; KLPN CRE 16260,✓
same,"Pathogen sensitivity (✓/x), Colistin 1 μg+ LC100 1 μg",various pathogens; KLPN CRE 16260,✓
same,"Pathogen sensitivity (✓/x), Colistin 1 μg+ LC100 2 μg",various pathogens; KLPN CRE 16260,✓
same,"Pathogen sensitivity (✓/x), Colistin 1 μg+ LC100 5 μg",various pathogens; KLPN CRE 16260,✓
same,"Pathogen sensitivity (✓/x), Colistin 0.5 μg+ LC100 1 μg",various pathogens; PAE ATCC 15442,✓
same,"Pathogen sensitivity (✓/x), Colistin 0.5 μg+ LC100 2 μg",various pathogens; PAE ATCC 15442,✓
same,"Pathogen sensitivity (✓/x), Colistin 1 μg+ LC100 1 μg",various pathogens; PAE ATCC 15442,✓
same,"Pathogen sensitivity (✓/x), Colistin 0.5 μg+ LC100 1 μg",various pathogens; PAE ATCC BAA-1744,✓
same,"Pathogen sensitivity (✓/x), Colistin 0.5 μg+ LC100 2 μg",various pathogens; PAE ATCC BAA-1744,✓
same,"Pathogen sensitivity (✓/x), Colistin 0.5 μg+ LC100 1 μg",various pathogens; PAE DM 4150,✓
same,"Pathogen sensitivity (✓/x), Colistin 0.5 μg+ LC100 2 μg",various pathogens; PAE DM 4150,✓
same,"Pathogen sensitivity (✓/x), Colistin 0.5 μg+ LC100 5 μg",various pathogens; PAE DM 4150,✓
same,"Pathogen sensitivity (✓/x), Colistin 0.5 μg+ LC100 1 μg",various pathogens; PAE DM 23155,✓
same,"Pathogen sensitivity (✓/x), Colistin 0.5 μg+ LC100 2 μg",various pathogens; PAE DM 23155,✓
same,"Pathogen sensitivity (✓/x), Colistin 1 μg+ LC100 1 μg",various pathogens; PAE DM 23155,✓
same,"Pathogen sensitivity (✓/x), Colistin 1 μg+ LC100 2 μg",various pathogens; PAE DM 23155,✓
same,"Pathogen sensitivity (✓/x), Colistin 0.5 μg+ LC100 1 μg",various pathogens; PAE DM 23257,✓
same,"Pathogen sensitivity (✓/x), Colistin 0.5 μg+ LC100 2 μg",various pathogens; PAE DM 23257,✓
same,"Pathogen sensitivity (✓/x), Colistin 0.5 μg+ LC100 5 μg",various pathogens; PAE DM 23257,✓
same,"Pathogen sensitivity (✓/x), Colistin 1 μg+ LC100 1 μg",various pathogens; PAE DM 23257,✓
same,"Pathogen sensitivity (✓/x), Colistin 0.5 μg+ LC100 1 μg",various pathogens; PAE DM 23376,✓
same,"Pathogen sensitivity (✓/x), Colistin 0.5 μg+ LC100 2 μg",various pathogens; PAE DM 23376,✓
same,"Pathogen sensitivity (✓/x), Colistin 0.5 μg+ LC100 1 μg",various pathogens; PAE DR 5790,✓
same,"Pathogen sensitivity (✓/x), Colistin 0.5 μg+ LC100 1 μg",various pathogens; PAE DU 14476,✓
same,"Pathogen sensitivity (✓/x), Colistin 0.5 μg+ LC100 2 μg",various pathogens; PAE DU 14476,✓
same,"Pathogen sensitivity (✓/x), Colistin 0.5 μg+ LC100 5 μg",various pathogens; PAE DU 14476,✓
same,"Pathogen sensitivity (✓/x), Colistin 1 μg+ LC100 1 μg",various pathogens; PAE DU 14476,✓
same,EtBr fluorescence,mcr-1 bacterial membrane,slight fluorescence
